Measurements taken from patent US20230210858A1, “PODOSOMES AS A THERAPEUTIC TARGET FOR INTRACRANIAL ANEURYSM” (THE BOARD OF REGENTS OF THE UNIVERSITY OF TEXAS SYSTEM, priority 2022, published 2023).

Tests used:
[1] = test system: Thsd1-deficient zebrafish; assay: Intracranial hemorrhage in thsd1 knockdown zebrafish embryos treated with SRC inhibitor (FIG. 8); format: in vivo; details: vs DMSO control, n>120 embryos, p<0.05, FIG. 8b
Method: (§1) Anti-sense morpholinos against thsd1, atg5 or talin was injected into one-cell stage zebrafish singly or in combination to silence the gene accordingly. At day 2 to day 3, embryos will be checked under regular optical microscope. Embryos with intracranial hemorrhages will be counted and imaged by Olympus microscope.
Intracranial aneurysm and hemorrhage are tightly associated with compromised cerebrovascular integrity. Recently, zebrafish have gained additional popularity as a vertebrate model organism for studying the cerebrovasculature. Since zebrafish embryos are transparent, intracranial hemorrhage can be directly observed using a standard microscope. Furthermore, zebrafish fecundity and rapid development permits rapid phenotypic evaluation as intracranial hemorrhage in zebrafish fry are detectable as early as 2-3 days post fertilization. Importantly, gain-of-function and loss-of-function approaches are well established in zebrafish that include morpholino and mRNA injections and more recently, through applications of CRISPR/Cas9 technology.
FIGS. 8a-8b are experimental results depicting that loss-of-function of Thsd1 induces SRC-dependent intracranial hemorrhage in zebrafish, and treatment with a PP2 SRC inhibitor prevents intracranial hemorrhage in Thsd1-deficient zebrafish. […] FIG. 8b is a chart quantifying the number of embryos with intracranial hemorrhage (%).

[2] = test system: thsd1-MO injected zebrafish embryos; assay: Hemorrhagic incidence in thsd1-MO injected zebrafish embryos (Table 5 constructs) treated with SRC inhibitors (FIG. 13); format: in vivo
Method: as §1
Subsequently, the nucleic acid constructs encoding these sequences were introduced into zebrafish thsd1 by PCR mutagenesis. Specifically, the thsd1 variant or the WT sequence was subcloned into pCS2+ zebrafish vector for expression. These constructs were used as tools to study cerebrovascular integrity mediated by thsd1 WT and rare variants in the zebrafish animal model selected to model a human condition.
All embryos were injected by thsd1-MO and the hemorrhagic incidence was counted under microscope. For each injection, around 80-120 embryos were injected. *p<0.05, **p<0.01.

| Structure (SMILES) | number of embryos with intracranial hemorrhage (%) [1] | hemorrhagic incidence (intracranial hemorrhage) ([2]; 10 uM in embryo water at 1 dpf for 24 hours) | hemorrhagic incidence (intracranial hemorrhage) ([2]; 1 uM in embryo water at 1 dpf for 24 hours) |
| --- | --- | --- | --- |
| CC(C)(C)n1nc(-c2ccc(Cl)cc2)c2c(N)ncnc21 [PP2] | ameliorated Thsd1-dependent hemorrhage incidents | rescued intracranial hemorrhage |  |
| CN(C)S(=O)(=O)c1ccc2c(c1)/C(=C/c1cc3c([nH]1)CCCC3)C(=O)N2 [SU5565] |  |  | rescued intracranial hemorrhage |
